Experimental data reported in patent EP4653437A2 (Innovo Therapeutics Inc., priority 2023, dated 2024).

Experiments:
[1] = molecular target: T1, human 15-PGDH (Homo sapiens, UniProt P15428); experiment: Evaluation of 15-PGDH inhibitory activity (fluorescence enzyme assay, NAD+/PGE2); format: biochemical; conditions: human 15-PGDH enzyme, fluorescence Vmax
T1 construct: purchased R&D System 5660-DH
T1 sequence (P15428 1-266): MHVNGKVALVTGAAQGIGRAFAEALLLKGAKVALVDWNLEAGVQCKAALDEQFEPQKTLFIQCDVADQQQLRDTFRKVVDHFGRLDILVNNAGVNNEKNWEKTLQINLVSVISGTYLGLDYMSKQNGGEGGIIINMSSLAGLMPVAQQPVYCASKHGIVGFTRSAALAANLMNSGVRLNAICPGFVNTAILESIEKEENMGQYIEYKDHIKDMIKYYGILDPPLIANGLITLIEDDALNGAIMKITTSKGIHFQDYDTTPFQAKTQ
Experimental: 15-PGDH inhibition activity of Example compounds was measured as follows. 6.7 ng of human 15-PGDH (R&D System# 5660-DH) enzyme (10 µL) was added to a black 96 well plate, 60 µL of buffer (50 mM Tris-HCl, pH 7.5, 0.01% Tween 20) was added, and 10 µL of 200 µM β-Nicotinamide adenine dinucleotide sodium salt (Sigma, Cat# N0632-5G) was added. 10 µL of (10x) compound solution in DMSO was added and reacted for 10 minutes at room temperature.

[2] = tested on: A549 cells; experiment: Measurement of PGE2-increasing activity in A549 cells (IL-1β stimulated, PGE2 quantified in supernatant); format: cell-based; conditions: Homo sapiens, 24 h; concentration of 1 µM of each compound; IL-1β treated A549 cells; read-out: Increased PGE2 production in A549 cells
Summary of the method: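 A549 cells grown 24 h in F12K with 10% FBS, then switched to serum-free medium with or without IL-1β and compound (0.1% DMSO final). After 24 h at 37 °C, 5% CO2, supernatant PGE2 quantified by immunoassay.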

SMILES | IC50 [1] [µM] | fold induction at 1 µM [2]
CN(C)C1CN(c2cc(-c3cccc4c(C(=O)N5CCCCC5)cnn34)cc(-c3cncc(F)c3)n2)C1 [Example 375, (7-(6-(3-(dimethylamino)azetidin-1-yl)-5'-fluoro-[2,3'-bipyridin]-4-yl)pyrazolo[1,5-a]pyridin-3-yl)(piperidin-1-yl)methanone] | ≤ 0.1 | > 1.5
O=C(c1cnn2c(-c3ccc(N4CCOC4=O)nc3)cccc12)N1CCCCC1 [Example 316, 3-(5-(3-(piperidine-1-carbonyl)pyrazolo[1,5-a]pyridin-7-yl)pyridin-2-yl)oxazolidin-2-one] | ≤ 0.1 | > 1.5
N#CCNC(=O)c1ccc(-c2cccc3c(C(=O)N4CCCCC4)cnn23)cn1 [Example 86, N-(cyanomethyl)-5-(3-(piperidine-1-carbonyl)pyrazolo[1,5-a]pyridin-7-yl)picolinamide] | ≤ 0.1 | > 1.5
Cn1nc2ccc(-c3cccc4c(C(=O)N5CCCCC5)cnn34)cn2c1=O [Example 246, 2-methyl-6-(3-(piperidine-1-carbonyl)pyrazolo[1,5-a]pyridin-7-yl)-[1,2,4]triazolo[4,3-a]pyridin-3(2H)-one] | ≤ 0.1 | > 1.5
COC(=O)c1cccc(-c2cccc3c(C(=O)N4CCCCC4)cnn23)c1 [Example 3, methyl 3-(3-(piperidine-1-carbonyl)pyrazolo[1,5-a]pyridin-7-yl)benzoate] | ≤ 0.1 | < 1.5
Cc1nc(-c2ccc(-c3cccc4c(C(=O)N5CCCCC5)cnn34)cc2)cn1C [Example 358] | ≤ 0.1 | > 1.5
Cc1nc(-c2ncc(-c3cccc4c(C(=O)N5CCCCC5)cnn34)cc2F)no1 [Example 263, [7-[5-fluoro-6-(5-methyl-1,2,4-oxadiazol-3-yl)-3-pyridyl]pyrazolo[1,5-a]pyridin-3-yl]-(1-piperidyl)methanone] | ≤ 0.1 | > 1.5
O=C(c1cnn2c(-c3cc(F)cc(-c4ncon4)c3)cccc12)N1CCCCC1 [Example 341, (7-(3-fluoro-5-(1,2,4-oxadiazol-3-yl)phenyl)pyrazolo[1,5-a]pyridin-3-yl)(piperidin-1-yl)methanone] | ≤ 0.1 | > 1.5
Cc1nnc(-c2ccc(-c3cccc4c(C(=O)N5CCCCC5)cnn34)cc2)o1 [Example 348, [7-[4-(5-methyl-1,3,4-oxadiazol-2-yl)phenyl]pyrazolo[1,5-a]pyridin-3-yl]-(1-piperidyl)methanone] | ≤ 0.1 | > 1.5
O=C(Cc1cncc(F)c1)Nc1cncc(-c2cccc3c(C(=O)N4CCCCC4)cnn23)c1 [Example 402, 2-(5-fluoropyridin-3-yl)-N-(5-(3-(piperidine-1-carbonyl)pyrazolo[1,5-a]pyridin-7-yl)pyridin-3-yl)acetamide] | ≤ 0.1 | > 1.5
O=C(c1cnn2c(-c3cc(-c4cncc(F)c4)nc(N4CCOCC4)c3)cccc12)N1CCCCC1 [Example 376, (7-(5'-fluoro-6-morpholino-[2,3'-bipyridin]-4-yl)pyrazolo[1,5-a]pyridin-3-yl)(piperidin-1-yl)methanone] | ≤ 0.1 | > 1.5
O=C(c1cnn2c(-c3ccccc3Cl)cccc12)N1CCCCC1 [Example 264, (7-(2-chlorophenyl)pyrazolo[1,5-a]pyridin-3-yl)(piperidin-1-yl)methanone] | ≤ 0.1 | > 1.5
O=C(Nc1ccncc1)c1ccc(-c2cccc3c(C(=O)N4CCCCC4)cnn23)cc1 [Example 72, 4-(3-(piperidine-1-carbonyl)pyrazolo[1,5-a]pyridin-7-yl)-N-(pyridin-4-yl)benzamide] | ≤ 0.1 | > 1.5
O=C(c1cnn2c(-c3cnc(N4CCOC4=O)nc3)cccc12)N1CCCCC1 [Example 308, 3-(5-(3-(piperidine-1-carbonyl)pyrazolo[1,5-a]pyridin-7-yl)pyrimidin-2-yl)oxazolidin-2-one] | ≤ 0.1 | > 1.5
O=C(Nc1ncc(-c2cccc3c(C(=O)N4CCCCC4)cnn23)cc1Cl)c1cccnc1 [Example 301, N-(3-chloro-5-(3-(piperidine-1-carbonyl)pyrazolo[1,5-a]pyridin-7-yl)pyridin-2-yl)nicotinamide] | ≤ 0.1 | > 1.5
O=C1CN(C(=O)c2cncc(-c3cccc4c(C(=O)N5CCCCC5)cnn34)c2)CC(=O)N1 [Example 204, 4-[5-[3-(piperidine-1-carbonyl)pyrazolo[1,5-a]pyridin-7-yl]pyridine-3-carbonyl]piperazine-2,6-dione] | ≤ 0.1 | < 1.5

SMILES | IC50 [1] [µM] | fold induction at 1 µM [2]
O=C(Nc1ccncc1)c1ccc(-c2cccc3c(C(=O)N4CCCCC4)cnn23)cn1 [Example 88, 5-(3-(piperidine-1-carbonyl)pyrazolo[1,5-a]pyridin-7-yl)-N-(pyridin-4-yl)picolinamide] | ≤ 0.1 | > 1.5
O=C(c1cnn2c(-c3ccc(-c4n[nH]c(=O)o4)nc3)cccc12)N1CCCCC1 [Example 360, 5-[5-[3-(piperidine-1-carbonyl)pyrazolo[1,5-a]pyridin-7-yl]-2-pyridyl]-3H-1,3,4-oxadiazol-2-one] | ≤ 0.1 | > 1.5
N#Cc1ccc(Nc2cccc3c(C(=O)N4CCCCC4)cnn23)cc1 [Example 146, 4-((3-(piperidine-1-carbonyl)pyrazolo[1,5-a]pyridin-7-yl)amino)benzonitrile] | ≤ 0.1 | > 1.5
Cc1nc(-c2cc(-c3cccc4c(C(=O)N5CCCCC5)cnn34)cc([N+](=O)[O-])c2)no1 [Example 330, (7-(3-(5-methyl-1,2,4-oxadiazol-3-yl)-5-nitrophenyl)pyrazolo[1,5-a]pyridin-3-yl)(piperidin-1-yl)methanone] | ≤ 0.1 | > 1.5
O=C(c1cnn2c(-c3cc(-c4ncon4)cc([N+](=O)[O-])c3)cccc12)N1CCCCC1 [Example 342, (7-(3-nitro-5-(1,2,4-oxadiazol-3-yl)phenyl)pyrazolo[1,5-a]pyridin-3-yl)(piperidin-1-yl)methanone] | ≤ 0.1 | > 1.5
CN1CCC(Nc2cccc3c(C(=O)N4CCCCC4)cnn23)CC1 [Example 150, (7-((1-methylpiperidin-4-yl)amino)pyrazolo[1,5-a]pyridin-3-yl)(piperidin-1-yl)methanone] | 0.1 to 1 | < 1.5
O=C1NCCc2ccc(-c3cccc4c(C(=O)N5CCC(F)CC5)cnn34)cc21 [Example 154, 7-(3-(4-fluoropiperidine-1-carbonyl)pyrazolo[1,5-a]pyridin-7-yl)-3,4-dihydroisoquinolin-1(2H)-one] | ≤ 0.1 | > 1.5
O=C(c1cnn2c(-c3ccc(-c4ccoc4)cc3)cccc12)N1CCCCC1 [Example 302, [7-[4-(3-furyl)phenyl]pyrazolo[1,5-a]pyridin-3-yl]-(1-piperidyl)methanone] | ≤ 0.1 | < 1.5
N#Cc1ccc(-c2cccc3c(C(=O)N4CCCCC4)cnn23)cn1 [Example 18, 5-(3-(piperidine-1-carbonyl)pyrazolo[1,5-a]pyridin-7-yl)picolinonitrile] | ≤ 0.1 | > 1.5
O=C(c1cnn2c(-c3ccc(N4CCC4)nc3)cccc12)N1CCCCC1 [Example 206, (7-(6-(azetidin-1-yl)pyridin-3-yl)pyrazolo[1,5-a]pyridin-3-yl)(piperidin-1-yl)methanone] | ≤ 0.1 | > 1.5
O=C(c1cnn2c(-c3ccc(-c4noc(=O)[nH]4)cc3)cccc12)N1CCCCC1 [Example 116, 3-(4-(3-(piperidine-1-carbonyl)pyrazolo[1,5-a]pyridin-7-yl)phenyl)-1,2,4-oxadiazol-5(4H)-one] | ≤ 0.1 | > 1.5
O=C(c1ccc(-c2cccc3c(C(=O)N4CCCCC4)cnn23)cn1)N1CCC1 [Example 77, azetidin-1-yl(5-(3-(piperidine-1-carbonyl)pyrazolo[1,5-a]pyridin-7-yl)pyridin-2-yl)methanone] | ≤ 0.1 | > 1.5
O=C(Cc1cccnc1)Nc1ncc(-c2cccc3c(C(=O)N4CCCCC4)cnn23)cc1Cl [Example 311, N-(3-chloro-5-(3-(piperidine-1-carbonyl)pyrazolo[1,5-a]pyridin-7-yl)pyridin-2-yl)-2-(pyridin-3-yl)acetamide] | ≤ 0.1 | > 1.5
N#Cc1cccc(-c2cccc3c(C(=O)N4CCCCC4)cnn23)c1 [Example 6, 3-(3-(piperidine-1-carbonyl)pyrazolo[1,5-a]pyridin-7-yl)benzonitrile] | ≤ 0.1 | > 1.5
COCCC(=O)Nc1cccc(-c2cccc3c(C(=O)N4CCCCC4)cnn23)c1 [Example 91, 3-methoxy-N-(3-(3-(piperidine-1-carbonyl)pyrazolo[1,5-a]pyridin-7-yl)phenyl)propanamide] | ≤ 0.1 | > 1.5
